What all share (type): functional
Experiment [1] deals with NCI-H522. Put plainly: Growth inhibition of human NCI-H522 cells after 48 hrs by sulforhodamine B assay. To be noted: NCI-H522, 48 h.
Experiment [2] deals with RPMI-8226. As to the kind of experiment: Growth inhibition of human RPMI8226 cells after 48 hrs by sulforhodamine B assay. Particulars: RPMI-8226, 48 h. For orientation: In SRB staining, fixed cells bind dye roughly in proportion to their protein.
The subject of experiment [3] is HCT-116. As to the kind of experiment: Cell cycle arrest in human HCT116 cells assessed as accumulation of G2-M phase at 5 uM after 48 hrs using propidium iodide staining by flow cytometric analysis (reference value: 19.2%). Background: A flow cytometer gives signals particle by particle.
For experiment [4], the system named is MDA-MB-231. Put plainly: Cell cycle arrest in human MDA-MB-231 cells assessed as accumulation of sub-G0-G1 phase at 5 uM after 48 hrs using propidium iodide staining by flow cytometric analysis (reference value: 8.4%).
Experiment [5] relates to MDA-MB-468. Put plainly: Growth inhibition of human MDA-MB-468 cells after 48 hrs by sulforhodamine B assay. To be noted: MDA-MB-468, 48 h.
Experiment [6] has as its system T47D. Put plainly: Growth inhibition of human T47D cells after 48 hrs by sulforhodamine B assay.
Experiment [7] in a line: Growth inhibition of human UO31 cells after 48 hrs by sulforhodamine B assay. To be noted: UO-31, 48 h.
Experiment [8] is described as follows: Growth inhibition of human RXF393 cells after 48 hrs by sulforhodamine B assay. To be noted: RXF 393, 48 h.
The test system of experiment [9] is SF-268. As to the kind of experiment: Growth inhibition of human SF268 cells after 48 hrs by sulforhodamine B assay. Particulars: SF-268, 48 h.

By GI50 is commonly meant the concentration giving 50% growth inhibition.

Turning to `C=C1c2c(C)nn(-c3ccc(OC)cc3)c2N(C)C23CC1C1(C)c4c(C)nn(-c5ccc(OC)cc5)c4N(C)C(C)(CC12)C3` (centres undefined), the GI50 came out at 2770 nM in experiment [1]; 1870 nM in experiment [2]; 2500 nM in [5]; 1810 nM in [6]; 2610 nM in [7]; 1900 nM in experiment [8]. In experiment [9], this compound came in with a GI50 of 3630 nM. Moreover, the Activity in experiment [3] was determined as 12.3%; in [4], 11.5%.

The record behind these values is ChEMBL document CHEMBL3102801, “Synthesis and antiproliferative activity of new derivatives containing the polycyclic system 5,7:7,13-dimethanopyrazolo[3,4-b]pyrazolo[3',4':2,3]azepino[4,5-f]azocine” (Eur J Med Chem, 2014).
